Laboratory results as given in ChEMBL document CHEMBL2176881, “Development of N-[4-[6-(isopropylamino)pyrimidin-4-yl]-1,3-thiazol-2-yl]-N-methyl-4-[11C]methylbenzamide for positron emission tomography imaging of metabotropic glutamate 1 receptor in monkey brain” (J Med Chem, 2012).

Tests used:
Format in all cases: ADME, organism-based
[1] = Metabolic stability in Sprague-Dawley plasma assessed as unchanged drug level at 37 MBq/0.1 mL, iv after 30 mins; conditions: rat, read-out: Stability
Blood = assay: Biodistribution in ddY mouse blood at 4.8 MBq/0.1 mL after 5 mins by gamma counting; conditions: in vivo
Mus musculus [2] = species: Mus musculus; assay: Biodistribution in ddY mouse small intestine at 4.8 MBq/0.1 mL after 5 mins by gamma counting; conditions: in vivo
Mus musculus [3] = species: Mus musculus; assay: Biodistribution in ddY mouse large intestine at 4.8 MBq/0.1 mL after 1 min by gamma counting; conditions: in vivo
Lung = assay: Biodistribution in ddY mouse lung at 4.8 MBq/0.1 mL after 5 mins by gamma counting; conditions: in vivo
Brain = assay: Biodistribution in ddY mouse brain at 4.8 MBq/0.1 mL after 90 mins by gamma counting; conditions: in vivo, 1.5 h

SMILES: CC(C)Nc1cc(-c2csc(N(C)C(=O)c3ccc([14CH3])cc3)n2)ncn1
- remaining at 0.5 h [1]: 39%
- Drug uptake (Blood): 1.27 % ID/g
- Drug uptake (Mus musculus [2]): 66.76 % ID/g
- Drug uptake (Mus musculus [3]): 1.28 % ID/g
- Drug uptake (Lung): 2.56 % ID/g
- Drug uptake (Brain): 0.62 % ID/g
